Test results from publication PMC6925188, “PBRM1 acts as a p53 lysine-acetylation reader to suppress renal tumor growth” (Nature Communications, 2019).
Where no end group is shown, it is not given here. The star is where a group is joined. Biotin = O=C1N[C@H]2[C@H](CS[C@H]2CCCCC(=O)*)N1

How the values were obtained:
endogenous PBRM1 = assay: Peptide pull-down, endogenous PBRM1 from cell lysates; type: binding; conditions: H1299 lysate, Supplementary Fig. 2e, f
Procedure: Fig. 2 Acetylation on K382 of p53 promotes PBRM1 binding. a Schematic depiction of the functional domains of p53 and truncated constructs. FL full-length, TAD transactivation domain, PRD proline-rich domain, DBD DNA-binding domain, TD tetramerization domain, CTD C-terminal domain. b HEK293T cells were transfected with vectors, Flag-PBRM1, Myc-p53 and Myc-p53 truncated constructs. After immunoprecipitation with Flag-M2 beads, the inputs and eluates were analyzed by immunoblots. c Vectors, Flag-PBRM1, Myc-p53 and HA-Tip60, HA-PCAF, HA-CBP or HA-p300 were transfected into HEK293T cells as indicated. Lysates were used for anti-Flag immunoprecipitation and 3X Flag peptide elution. The inputs and eluates were analyzed by immunoblots. d HEK293T cells were transfected with Flag-PBRM1, Myc-p53 and HA-p300. The amount of HA-p300 was titrated as indicated. Lysates were used in immunoprecipitations with Flag-M2 beads, and inputs and eluates were analyzed by immunoblots. e Vectors, Flag-PBRM1, HA-p300 and Myc-p53 (WT) or Myc-p53 6KR mutant were transfected into HEK293T cells as indicated. Lysates were used for anti-Flag immunoprecipitation and 3X Flag peptide elution. Inputs and eluates were examined by immunoblots. […] The peptides were pulled down with streptavidin beads and the associated proteins were analyzed by immunoblots. […]

BDs of PBRM1 = conditions: shorter peptide, residues 375–388, 14 residues; cited from earlier work
Source text: Although acetylation is indispensable for p53′s transcriptional function and SWI/SNF complexes function as transcriptional co-factors, no acetylation-dependent interaction has been reported between p53 and SWI/SNF complexes. In this study, we report that acetylation on p53 lysine 382 enhanced the interaction between PBRM1 and p53 via recognition by PBRM1 BD4. […] The difference is likely due to the length of the peptides used. In our experiments, the p53 peptide used was much longer than theirs (368–393, 26 re ...

PBRM1-p53 interaction = assay: Co-immunoprecipitation of Flag-PBRM1 and Myc-p53 (anti-Flag M2) in H1299 cells; type: cell-based
Source text: Fig. 1 PBRM1 and p53 display a physical association that is enhanced after DNA damage. a U2OS cells (left) and HEK293T cells (right) were transfected with vector or Flag-PBRM1 and harvested for immunoprecipitation with Flag-M2 beads and elution with 3X Flag peptide. […] Lysates were subjected to immunoprecipitation with Flag-M2 beads. […] Lysates were immunoprecipitated with p53 antibody. The bound PBRM1 and p53 were examined by immunoblots. Source data are provided as a Source Data file.
For anti-Flag immunoprecipitation, cell pellets harvested from one 10 cm culture dish were resuspended in 500 µl hypotonic buffer (10 mM Tris-HCl, pH 8.0, 1.5 mM MgCl2, 10 mM KCl) with protease and phosphatase inhibitors, 2 μM TSA and 10 mM NAM, and samples were incubated on ice for 15 min. Twenty-five microliters of Triton X-100 was added and samples were vortexed for 10 s. After centrifuging for 30 s at 14,000 × g, supernatants were removed and pellets were resuspended in 100 µl hypertonic buffer (20 mM Tris-HCl pH 8.0, 420 mM KCl, 1.5 mM MgCl2, 20% (v/v) glycerol) with protease and phosphatase inhibitors, 2 μM TSA and 10 mM NAM and vortexed for 10 s. Pellets were incubated on ice for 40 min and vortexed for 15 s every 10 min. After centrifuging for 10 min at 14,000 × g, supernatants were collected and diluted with 300 µl EBC buffer (50 mM Tris-HCl (pH 7.5), 120 mM NaCl, 0.5% NP-40) with protease and phosphatase inhibitors, 2 μM TSA and 10 mM NAM. […] Beads were washed four times with EBC buffer and eluted with 3X Flag peptide (F4799, Sigma-Aldrich) overnight at 4 °C. The input and Flag-elution were analyzed by SDS-PAGE and immunoblot.
Supplementary Figure 2. […]
a. Vectors, Flag-PBRM1 or Myc-p53 were transfected into H1299 cells as indicated, and treated with 5 µM nicotinamide or vehicle. Lysates were used for anti-Flag immunoprecipitation and 3X Flag peptide elution. The inputs and eluates were immunoblotted with the indicated antibodies. […]
Flag-PBRM1, wildtype or K382Q mutated Myc-p53 were transfected into H1299 cells with indicated combinations. Lysates were used for anti-Flagimmunoprecipitation followed by Flag peptide elution. […]

[1] = system: ACHN, Caki-1 and Ren-01 cells; assay: Immunoblot of p53 targets, kidney cancer cells with PBRM1 shRNA knockdown; type: cell-based; conditions: 10 μM Nutlin-3a
Procedure: Lysates were analyzed by immunoblots. c RCC4 cells with or without p53 KO were transfected with vector or Flag-PBRM1 at the indicated amounts. […] Cells were harvested for RT-qPCR (g) or ChIP followed by qPCR (h). […] Representative data is shown in i. Quantification of cell cycle phase is shown in j. Source data are provided as a Source Data file.
After washing with ice-cold PBS, cells were scraped on ice and centrifuged at 10,000 × g for 1 min at 4 °C. For immunoblot analysis, cell pellets were lysed in 1% SDS containing a protease inhibitor cocktail followed by sonication with a FB50 sonic dismembrator (Fisher Scientific) at 20% amplitude for 15 s twice. After centrifuging for 10 min at 14,000 × g, the supernatants were combined with 5X SDS loading buffer (5% mercaptoethanol, 0.05% Bromophenol blue, 30% glycerol, 10% SDS, 250 mM Tris-HCl (pH 6.8)), boiled for 5 min and used in SDS-PAGE. After standard western blot procedures, the blots were developed using the ImageQuant LAS 4000 (GE healthcare Life Sciences) or ChemiDoc MP Imaging System (Bio-rad) with HyGLO™ Chemiluminescent HRP Detection Reagent (E2500, Denville Scientific) or Immobilon™ Western Chemiluminescent HRP Substrate (WBKLS0500, Millipore). […]
the indicated times. Lysates were analyzed via immunoblots. b. […]
were analyzed by immunoblots. c. […]
Lysates were analyzed via immunoblots. e. […]
Lysates were analyzed via immunoblots. f, g, h. […]

K382Q: Biot-K382Q (368-393) p53 peptide (Biotin-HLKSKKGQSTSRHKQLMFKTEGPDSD; UniProt P04637 368-393, looked up, variant K382Q)
binding to PBRM1 of K382Q peptide (endogenous PBRM1): failed to mimic K382Ac to enhance binding to PBRM1

p53 K382Ac peptide (375–388): p53 K382Ac peptide of previous report, 375–388, 14 residues (QSTSRHKK(Ac)LMFKTE; not fully specified; UniProt P04637 375-388, looked up, fragment)
binding of PBRM1 BDs to p53 K382Ac peptide (BDs of PBRM1): did not bind

NC(=O)c1cccnc1 [Nicotinamide]
PBRM1-p53 interaction (PBRM1-p53 interaction; H1299, 5 µM nicotinamide): enhanced

COc1ccc(C2=N[C@@H](c3ccc(Cl)cc3)[C@@H](c3ccc(Cl)cc3)N2C(=O)N2CCNC(=O)C2)c(OC(C)C)c1 [Nutlin-3a]
p21 induction by p53 with PBRM1 knockdown [1]: reduced

bleomycin
PBRM1 and exogenous p53 protein levels (PBRM1-p53 interaction; H1299, etoposide 50 μM or bleomycin 10 μg/ml): neither the PBRM1 nor the exogenous p53 levels changed
PBRM1-p53 interaction (PBRM1-p53 interaction; H1299 co-transfected with PBRM1 and p53, bleomycin 10 μg/ml): enhanced
